# Measured values: US20200278355A1, “CONJUGATED PROTEINS AND USES THEREOF” (THE SCRIPPS RESEARCH INSTITUTE, priority 2017, published 2020)
# Legend:
# [1] = tested on: CRY1, DEPDC1, and CPLX2 expression in KEAP1-WT H2009 cells; assay: Gene expression changes (qPCR) in KEAP1-WT NSCLC cells; assay type: cell-based, human
# [2] = target: T1, SCP2 (Homo sapiens, UniProt P22307); assay: ABPP-SILAC BPK-29yne competition in H460 cells: SCP2; assay type: cell-based; conditions: 20 μM
# T1 construct: H460 cells or H460 cells expressing luciferase in a 10 cm plate were incubated with indicated compounds; endogenous in cells; host or cells: H460
# Experimental: (§1) Isotopically labeled H460 cell lines were generated as described above. Light and heavy cells were treated with compounds (20 μM) or DMSO, respectively, for 3 h, followed by labeling with the BPK-29yne (5 μM) for 30 min. Cells were washed once ice-cold PBS and lysed in 1% Triton 100-X dissolved in PBS with protease inhibitors (Sigma) by sonication. Lysate was adjusted to 1.5 mg ml^−1 in 500 μL. Samples were conjugated by CuAAC to Biotin-PEG4-azide (5 μL of 10 mM stocks in DMSO, final concentration=100 μM). CuAAC “click” mix contained TCEP, TBTA ligand and CuSO4 as detailed for isoTOP-ABPP sample preparation. Samples were further processed as detailed in: isoTOP-ABPP streptavidin enrichment and isoTOP-ABPP trypsin TEV digestion with the following exception: after overnight incubation at 37° C. with trypsin, tryptic digests were separated from the beads with Micro Bio-Spin columns (Bio-Rad) by centrifugation (1,000×g, 1 min). Beads were rinsed once with water (200 μL) and combined with tryptic digests. […]
# (§2) The MS2 spectra data were extracted and searched using RAW Convertor and ProLuCID algorithm as described in isoTOP-ABPP peptide and protein quantification. […] Ratios of heavy/light (DMSO/test compound) peaks were calculated using in-house CIMAGE software. […] The mean R values and standard deviation for multiple biological experiments were calculated from the average ratios from each replicate. […]
# [3] = target: T2, TXNRD1 (Homo sapiens, UniProt Q16881); assay: ABPP-SILAC BPK-29yne competition in H460 cells: TXNRD1; assay type: cell-based; conditions: 20 μM
# T2 construct: endogenous in cells; host or cells: H460
# Experimental: as §1, §2
# [4] = target: T3, FAM213A (Homo sapiens, UniProt Q9BRX8); assay: ABPP-SILAC BPK-29yne competition in H460 cells: FAM213A; assay type: cell-based; conditions: 20 μM
# T3 construct: Isotopically labeled H460 cell lines were generated as described above; endogenous in cells; host or cells: H460 (SILAC-labelled)
# Experimental: as §1, §2
# T1 sequence (P22307 whole entry): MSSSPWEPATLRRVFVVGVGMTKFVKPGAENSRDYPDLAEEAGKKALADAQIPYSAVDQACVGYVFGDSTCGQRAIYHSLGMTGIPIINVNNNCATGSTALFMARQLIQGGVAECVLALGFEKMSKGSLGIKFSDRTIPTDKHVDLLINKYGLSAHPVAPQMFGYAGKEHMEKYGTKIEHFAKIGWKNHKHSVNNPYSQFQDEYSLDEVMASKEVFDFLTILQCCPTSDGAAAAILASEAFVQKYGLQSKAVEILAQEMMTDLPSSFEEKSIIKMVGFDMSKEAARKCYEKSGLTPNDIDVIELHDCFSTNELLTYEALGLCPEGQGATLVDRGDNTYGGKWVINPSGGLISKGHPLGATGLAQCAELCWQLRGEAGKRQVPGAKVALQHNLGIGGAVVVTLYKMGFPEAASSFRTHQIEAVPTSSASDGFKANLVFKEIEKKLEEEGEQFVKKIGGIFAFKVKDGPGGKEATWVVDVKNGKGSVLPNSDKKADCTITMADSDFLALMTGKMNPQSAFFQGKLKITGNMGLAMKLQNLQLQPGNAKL
# T2 sequence (Q16881 whole entry): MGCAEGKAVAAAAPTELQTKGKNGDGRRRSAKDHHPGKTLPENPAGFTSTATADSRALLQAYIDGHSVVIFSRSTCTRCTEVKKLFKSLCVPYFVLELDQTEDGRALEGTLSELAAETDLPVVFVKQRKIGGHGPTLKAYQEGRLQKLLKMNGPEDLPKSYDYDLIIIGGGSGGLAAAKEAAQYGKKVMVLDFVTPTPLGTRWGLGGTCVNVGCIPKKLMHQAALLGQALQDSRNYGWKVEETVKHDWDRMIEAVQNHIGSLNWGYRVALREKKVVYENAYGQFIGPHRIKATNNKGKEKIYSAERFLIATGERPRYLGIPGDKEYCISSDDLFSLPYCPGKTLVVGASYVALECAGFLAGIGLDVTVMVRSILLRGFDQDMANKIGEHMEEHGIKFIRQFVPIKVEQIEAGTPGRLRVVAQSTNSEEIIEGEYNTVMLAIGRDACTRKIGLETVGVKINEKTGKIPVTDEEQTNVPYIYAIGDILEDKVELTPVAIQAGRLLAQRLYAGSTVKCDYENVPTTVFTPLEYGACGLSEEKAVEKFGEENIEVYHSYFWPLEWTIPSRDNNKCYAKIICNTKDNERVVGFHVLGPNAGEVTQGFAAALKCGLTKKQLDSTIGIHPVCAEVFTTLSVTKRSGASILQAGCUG
# T3 sequence (Q9BRX8 whole entry): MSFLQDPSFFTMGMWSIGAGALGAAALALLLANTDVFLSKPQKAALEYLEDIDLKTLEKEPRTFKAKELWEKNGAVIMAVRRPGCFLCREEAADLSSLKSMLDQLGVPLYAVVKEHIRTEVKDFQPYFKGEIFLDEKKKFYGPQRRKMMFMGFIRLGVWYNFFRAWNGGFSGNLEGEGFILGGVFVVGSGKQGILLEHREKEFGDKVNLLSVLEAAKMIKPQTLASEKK
structure (smiles),measurement,setting,value
"O=C(c1ccc(N2CCOCC2)cc1)N1CCCC(N(Cc2ccccc2)C(=O)CCl)CC1 (stereo not shown) [BPK-29, N-benzyl-2-chloro-N-(1-(4-morpholinobenzoyl)azepan-4-yl)acetamide]","gene expression changes (CRY1, DEPDC1, CPLX2)",[1],not observed
same,BPK-29-competed BPK-29yne analysis,[2],Yes (Competed defined as showing R value ≥ 2.5 at 20 μM of test compound)
same,BPK-29-competed BPK-29yne analysis,[3],Yes (Competed defined as showing R value ≥ 2.5 at 20 μM of test compound)
same,BPK-29-competed BPK-29yne analysis,[4],Yes (Competed defined as showing R value ≥ 2.5 at 20 μM of test compound)
